Like-named read-outs stand apart in the source and are kept apart here.
Assays:
HCT116 MTAP WT cells = assay: Proliferation inhibition of HCT116 cells in vitro (CellTiter Glo, 6 days); type: cell-based; conditions: read-out: Cell proliferation inhibition rate HCT116 MTAP WT IC50 (nm)
[1] = test system: HCT116-MTAP-KO (MTAP null) cells; assay: Proliferation inhibition of HCT116 MTAP-KO cells in vitro (CellTiter Glo, 6 days); type: cell-based; conditions: read-out: Cell proliferation inhibition rate HCT116-MTAP null IC50 (nm)

IC50 (HCT116 MTAP WT cells; Homo sapiens, HCT-116, 144 h) | IC50 ([1]; HCT116-MTAP null, 144 h) | IC50 (HCT116 MTAP WT cells) | IC50 [1] | SMILES
1 to 10 µM | 0.1 to 1 µM | – | – | CC1OCc2c1c(N)nc1ccc(C(=O)N(Cc3cn4ccccc4n3)C34CC(C3)C4)cc21 (stereo not drawn) [Example 56]
1 to 10 µM | < 0.1 µM | – | – | C[C@@H]1COC[C@H](c2cn3ccccc3n2)N1C(=O)c1ccc2nc(N)c3cnn(C)c3c2c1 [Example 63]
1 to 10 µM | < 0.1 µM | – | – | CCN(Cc1cn2cc(C(F)(F)F)ncc2n1)C(=O)c1cc2c(cc1F)nc(N)c1c(C)ncn12 [Example 207]
1 to 10 µM | < 0.1 µM | – | – | CC(C)CN(Cc1cn2ccccc2n1)C(=O)c1ccc2nc(N)c3c(c2c1)CO[C@H]3C [Example 55]
1 to 10 µM | 0.1 to 1 µM | – | – | CC(c1ncccn1)N(Cc1nc2cc(C(F)(F)F)ccc2s1)C(=O)c1ccc2nc(N)c3c(c2c1)CCC3 (stereo not drawn) [Example 153]
1 to 10 µM | 0.1 to 1 µM | – | – | Cc1ncc2c(N)nc3cc(F)c(C(=O)N(Cc4cc5ccccn5n4)C4CCOC4)cc3n12 (stereo not drawn) [Example 232]
1 to 10 µM | < 0.1 µM | – | – | Cc1ncn2c1c(N)nc1cc(F)c(C(=O)N(c3cnn(C)c3)C3COc4ccccc43)cc12 (stereo not drawn) [Example 221]
< 0.1 µM | < 0.1 µM | – | – | CC(C)CN(Cc1cn2cc(C(F)(F)C(F)(F)F)ccc2n1)C(=O)c1cc2c(cc1F)nc(N)c1cnn(C)c12 [Example 34]
1 to 10 µM | 0.1 to 1 µM | – | – | CCN(Cc1cn2cc(CN3CCOCC3)ccc2n1)C(=O)c1cc2c(cc1F)nc(N)c1c(C)ncn12 [Example 249]
1 to 10 µM | 0.1 to 1 µM | – | – | CCN(C(=O)c1ccc2nc(N)c3c(cnn3C)c2c1)C(C)c1cc2ccccn2n1 (stereo not drawn) [Example 117]
1 to 10 µM | 0.1 to 1 µM | – | – | Cc1ncc2c(N)nc3cc(F)c(C(=O)N(Cc4cn5cc(C(F)(F)F)ccc5n4)C4CCOC4)cc3n12 (stereo not drawn) [Example 230]
1 to 10 µM | < 0.1 µM | – | – | CC(C)CN(Cc1cn2cc(C(F)(F)F)ccc2n1)C(=O)c1ccc2nc(N)c3c(c2c1)COC3 [Example 3, 4-Amino-N-isobutyl-N—((6-(trifluoromethyl)imidazolo [1,2-a]pyridin-2-yl)methyl)-1,3-dihydrofurano [3,4-c] quinolin-8-carboxamide]
0.1 to 1 µM | < 0.1 µM | – | – | C[C@H]1COC[C@@H](c2cc3ccccn3n2)N1C(=O)c1cc2c(cc1F)nc(N)c1cnn(C)c12 [Example 123]
1 to 10 µM | 0.1 to 1 µM | – | – | CC1OCc2c1c(N)nc1ccc(C(=O)N(Cc3cn4ccccc4n3)CC(F)F)cc21 (stereo not drawn) [Example 66]
1 to 10 µM | 0.1 to 1 µM | – | – | CC1OCc2c1c(N)nc1ccc(C(=O)N(Cc3cn4ccccc4n3)C(C)C(F)(F)F)cc21 (stereo not drawn) [Example 65]
0.1 to 1 µM | < 0.1 µM | – | – | CC(C)CN(Cc1cn2cc(C(F)(F)F)ccc2n1)C(=O)c1cc2c(cc1F)nc(N)c1cnn(C)c12 [Example 36]
1 to 10 µM | < 0.1 µM | – | – | Cn1ncc2c(N)nc3cc(F)c(C(=O)N(Cc4cn5ccccc5n4)CC(C)(F)F)cc3c21 [Example 27]
1 to 10 µM | < 0.1 µM | – | – | Cn1cc(N(Cc2nc3ccc(C(F)(F)F)cn3c2F)C(=O)c2ccc3nc(N)c4c(c3c2)COC4)cn1 [Example 91]
1 to 10 µM | < 0.1 µM | – | – | CCN(Cc1cc2ccc(C(F)(F)F)cn2n1)C(=O)c1cc2c(cc1F)nc(N)c1c(C)ncn12 [Example 218]

IC50 (HCT116 MTAP WT cells; Homo sapiens, HCT-116, 144 h) | IC50 ([1]; HCT116-MTAP null, 144 h) | IC50 (HCT116 MTAP WT cells) | IC50 [1] | SMILES
1 to 10 µM | < 0.1 µM | – | – | Cn1ncc2c(N)nc3cc(F)c(C(=O)N(Cc4cn5ccccc5n4)C45CC(C(F)(F)F)(C4)C5)cc3c21 [Example 62]
1 to 10 µM | < 0.1 µM | – | – | Cc1ncc2c(N)nc3cc(F)c(C(=O)N(Cc4cn5ccccc5n4)C4CCC4)cc3n12 [Example 179]
1 to 10 µM | < 0.1 µM | – | – | Cn1ncc2c(N)nc3cc(F)c(C(=O)N(Cc4cn5ccccc5n4)C45CC(C#N)(C4)C5)cc3c21 [Example 61]
1 to 10 µM | 0.1 to 1 µM | – | – | Cc1ncn2c1c(N)nc1ccc(C(=O)N(CC(C)C)C(C)c3cn4cc(C(F)(F)F)ccc4n3)cc12 (stereo not drawn) [Example 296]
1 to 10 µM | < 0.1 µM | – | – | CCN(C(=O)c1ccc2nc(N)c3c(c2c1)COC3)C(C)c1cc2ccccn2n1 (stereo not drawn) [Example 119, 4-Amino-N-ethyl-N-(1-(pyrazolo[1,5-a]pyridin-2-yl)ethyl)-1,3-dihydrofurano[3,4-c]quinolin-8-carboxamide]
0.1 to 1 µM | < 0.1 µM | – | – | Cn1nccc1N(Cc1cn2cc(C(F)(F)F)ccc2n1)C(=O)c1ccc2nc(N)c3c(c2c1)OCC3 [Example 112]
1 to 10 µM | 0.1 to 1 µM | – | – | COCC(C1CC1)N(Cc1nc2cc(C(F)(F)F)ccc2s1)C(=O)c1ccc2nc(N)c3c(c2c1)CCC3 (stereo not drawn) [Example 154]
1 to 10 µM | < 0.1 µM | – | – | Cc1nn(C)cc1N(Cc1cn2cc(C(F)(F)F)ccc2n1)C(=O)c1cc2c(cc1F)nc(N)c1c(C)ncn12 [Example 233]
1 to 10 µM | 0.1 to 1 µM | – | – | CC1OCc2c1c(N)nc1ccc(C(=O)N(Cc3cn4c(C(F)(F)F)cccc4n3)c3cnn(C)c3)cc21 (stereo not drawn) [Example 74]
1 to 10 µM | 0.1 to 1 µM | – | – | CCN(Cc1cn2ccccc2n1)C(=O)c1cc2c(cc1C)nc(N)c1cnc(C)n12 [Example 268]
1 to 10 µM | 0.1 to 1 µM | – | – | Cc1nn(C)cc1N(Cc1cn2ncccc2n1)C(=O)c1cc2c(cc1F)nc(N)c1cnc(C)n12 [Example 231]
0.1 to 1 µM | < 0.1 µM | – | – | Cn1ncc2c(N)nc3cc(F)c(C(=O)N(Cc4cn5ccccc5n4)C45CC(C4)C5)cc3c21 [Example 12]
1 to 10 µM | 0.1 to 1 µM | – | – | Cc1ncc2c(N)nc3cc(F)c(C(=O)N(Cc4cn5ccccc5n4)C4CCCC4O)cc3n12 (stereo not drawn) [Example 190]
1 to 10 µM | < 0.1 µM | – | – | Cn1cc(N(Cc2nc3ccccn3c2F)C(=O)c2ccc3nc(N)c4c(c3c2)COC4)cn1 [Example 92]
1 to 10 µM | < 0.1 µM | – | – | Cc1nn(C)cc1N(Cc1cn2cc(C(F)(F)F)ccc2n1)C(=O)c1ccc2nc(N)c3c(c2c1)COC3C (stereo not drawn) [Example 313, 4-Amino-N-(1,3-dimethylpyrazol-4-yl)-3-methyl-N-[[6-(trifluoromethyl)imidazolo[1,2-a]pyridin-2-yl]methyl]-1,3-dihydrofurano[3,4-c]quinolin-8-carboxamide]
1 to 10 µM | 0.1 to 1 µM | – | – | Cc1ncn2c1c(N)nc1cc(F)c(C(=O)N(Cc3cn4ccccc4n3)c3cnn(C)c3C)cc12 [Example 255]
0.1 to 1 µM | 0.1 to 1 µM | – | – | CC(c1ncccn1)N(Cc1nc2ccccc2[nH]1)C(=O)c1ccc2nc(N)c3c(c2c1)CCC3 (stereo not drawn) [Example 128]
1 to 10 µM | < 0.1 µM | – | – | CCN(Cc1nc2ccccn2c1C)C(=O)c1cc2c(cc1F)nc(N)c1cnn(C)c12 [Example 30]
1 to 10 µM | < 0.1 µM | – | – | Cn1cc(N(Cc2cn3ccccc3n2)C(=O)c2cc3c4c(c(N)nc3cc2F)COC4)cn1 [Example 82]

IC50 (HCT116 MTAP WT cells; Homo sapiens, HCT-116, 144 h) | IC50 ([1]; HCT116-MTAP null, 144 h) | IC50 (HCT116 MTAP WT cells) | IC50 [1] | SMILES
– | – | < 0.1 µM | < 0.1 µM | Cn1nccc1N(Cc1cn2cc(C(F)(F)F)ccc2n1)C(=O)c1cc2c(cc1F)nc(N)c1cnn(C)c12 [Example 111]
1 to 10 µM | 0.1 to 1 µM | – | – | CC(C)CN(Cc1nc2ccccc2[nH]1)C(=O)c1ccc2nc(N)c3c(c2c1)COC3C (stereo not drawn) [Example 136]
1 to 10 µM | < 0.1 µM | – | – | Cc1ncccc1N(Cc1cn2cc(C(F)(F)F)ccc2n1)C(=O)c1ccc2nc(N)c3c(c2c1)COC3 [Example 99]
1 to 10 µM | < 0.1 µM | – | – | COC1CCCC1N(Cc1cn2cc(C(F)(F)F)ccc2n1)C(=O)c1ccc2nc(N)c3c(C)ncn3c2c1 (stereo not drawn) [Example 294]
1 to 10 µM | < 0.1 µM | – | – | Cc1nn(C)cc1N(Cc1cc2ccc(C(F)(F)F)cn2n1)C(=O)c1ccc2nc(N)c3c(c2c1)COC3 [Example 126]
1 to 10 µM | < 0.1 µM | – | – | CCN(Cc1nc2ccccn2c1F)C(=O)c1cc2c(cc1F)nc(N)c1c(C)ncn12 [Example 209]
0.1 to 1 µM | < 0.1 µM | – | – | CC(C)CN(Cc1nc2cc(S(F)(F)(F)(F)F)ccc2[nH]1)C(=O)c1cc2c(cc1F)nc(N)c1cnn(C)c12 [Example 133]
1 to 10 µM | 0.1 to 1 µM | – | – | Cc1nc(C)n2c1c(N)nc1ccc(C(=O)N(C)C3COc4cc(-c5cnn(C(F)(F)F)c5)ccc43)cc12 (stereo not drawn) [Example 167]
1 to 10 µM | < 0.1 µM | – | – | Cc1ncc2c(N)nc3ccc(C(=O)N(Cc4cn5cc(C(F)(F)F)ccc5n4)c4c(F)cnn4C)cc3n12 [Example 300]
1 to 10 µM | 0.1 to 1 µM | – | – | CCN(Cc1cc2ccccn2n1)C(=O)c1ccc2nc(N)c3c(c2c1)COC3C (stereo not drawn) [Example 121]
1 to 10 µM | < 0.1 µM | – | – | Cc1ncn2c1c(N)nc1cc(F)c(C(=O)N(Cc3nc4ccccn4c3F)c3cnn(C)c3)cc12 [Example 205]
1 to 10 µM | < 0.1 µM | – | – | CC(C)N(Cc1nc2ccccc2[nH]1)C(=O)c1ccc2cc(N)c3c(c2c1)CCC3 [Example 130]
1 to 10 µM | < 0.1 µM | – | – | COCCN(C(=O)c1cc2c(cc1F)nc(N)c1cnn(C)c12)C(C)c1cn2ccccc2n1 (stereo not drawn) [Example 60]
1 to 10 µM | 0.1 to 1 µM | – | – | Cc1ncn2c1c(N)nc1cc(F)c(C(=O)N(Cc3cn4cc(CN5CCOCC5)ccc4n3)c3cnn(C)c3)cc12 [Example 254]
1 to 10 µM | < 0.1 µM | – | – | Cc1cc2cc(C(=O)N(Cc3cn4ccccc4n3)C(C)c3ncccn3)ccc2nc1N (stereo not drawn) [Example 8]
1 to 10 µM | < 0.1 µM | – | – | Cc1cc2cc(C(=O)N(Cc3cn4ccccc4n3)C(C)c3ncccn3)c(F)cc2nc1N (stereo not drawn) [Example 38]
1 to 10 µM | < 0.1 µM | – | – | CCN(Cc1nc2ccc(C(F)(F)F)cc2[nH]1)C(=O)c1ccc2nc(N)c3c(c2c1)COC3C (stereo not drawn) [Example 134]
1 to 10 µM | < 0.1 µM | – | – | COCC(C)N(Cc1cn2cc(C(F)(F)F)ccc2n1)C(=O)c1ccc2nc(N)c3c(C)ncn3c2c1 (stereo not drawn) [Example 288]
1 to 10 µM | < 0.1 µM | – | – | Cc1cc2cc(C(=O)N(Cc3cn4cc(C(F)(F)F)ccc4n3)C(C)c3ncccn3)c(F)cc2nc1N (stereo not drawn) [Example 39]
